# Assay results as given in patent US7579006B2, “Method of treating immune pathologies with low dose estrogen” (Oregon Health and Science University, priority 2000, dated 2009).
# Where two headings read alike, the source gives them in different places.
# Experiments:
# spinal cord mRNA = assay: RNase protection assay of chemokine, chemokine receptor and cytokine mRNA in spinal cords of Tg females with EAE; format: in vivo, mice; conditions: 0.36 mg pellet
# Experimental: RNase protection assay. Total RNA was extracted from frozen spinal cords or lymph node cells using the STAT-60 reagent (Tel-Test, Inc., Friendswood, Tex.). Chemokine expression was determined by using the RiboQuant RPA kit (PharMingen) according to the manufacturer's instructions. A multiprobe set detected the following chemokine transcripts: C—X—C chemokines: MIP-2 and IP-10; C—C chemokines: RANTES, MIP-1α, MCP-1, and TCA-3; and C chemokine: Ltn. The chemokine receptor set detected the following transcripts: CCR1, CCR1b, CCR2, CCR3, CCR4, CCR5. Using RPA multiprobe it was possible to detect the following cytokines: IL-4, IL-10, TNF-α, LTβ, IFN-γ. The sample loading was normalized by the housekeeping gene, L32, included in each template set. RPA analysis was performed on […] total RNA hybridized with probes labeled with [^32P]UTP. After digestion of ssRNA, the RNA pellet was solubilized and resolved on a 5% sequencing gel. Controls included the probe set hybridized to transfer RNA only, appropriate control RNA which serves as integrity control for the RNA sample, and yeast tRNA as a background control. For quantification, gels were exposed by phosphorimaging (Bio-Rad Laboratories, Hercules, Calif.) and radioactivity in individual bands (after background subtraction) in comparison with L32 was assessed with Quantity One software (Bio-Rad Laboratories, Hercules, Calif.).
# To optimize detection of clinically-related changes, chemokine expression was compared in 17β-estradiol protected versus sham pellet implanted mice during the peak acute phase of disease (16-17 days after immunization with MBP-Ac1-11 peptide/CFA) and during the chronic phase (28 days after immunization). […] A quantitative method—the RNase protection assay—was employed to examine RNA synthesis for the following chemokines: RANTES, MIP-1α, MCP-1, and TCA-3 (C—C-subfamily); and MIP-2 and IP-10 (C—X—C-subfamily). The tissue sample for RPA was prepared by homogenization of whole spinal cord and total cellular RNA was extracted.
# [1] = cited from earlier work
# CNS mononuclear cells = assay: Intracellular cytokine staining of CNS mononuclear cells; format: in vivo, mice; conditions: 2.5 mg pellet
# Text: CNS mononuclear cells were isolated from perfused brain and spinal cord by percol gradient centrifugation as described in Bebo et al., J. Neurosci. Res. 52:420-429 (1998). The cells were stimulated with MOG-35-55 peptide for 24 hrs, the last 5 hrs in the presence of Brefeldin A. The cells were then stained with anti-CD4 cychrome labeled antibodies prior to fixation and permeabilization. The cells were subsequently stained with Vβ8.1/8.2 TCR-FITC and the indicated cytokine specific antibody coupled to PE and analyzed by three-color flow cytometry. For each experiment the cells were stained with isotype control antibodies to establish background staining and to set the quadrants prior to calculating the percent positive cells.
# Intracellular staining of CNS mononuclear cells with anti-cytokine antibodies was also performed. Mononuclear cells were recovered from the brain and spinal cords of perfused mice at the peak of clinical disease. […] These cells were stained with anti-CD4 cychrome labeled antibodies and the frequency of cytokine producing Vβ8.2+ helper T cells was measured by staining with anti-Vβ8.2-FITC and PE-labeled cytokine specific antibodies.
# Lymph node CD3+ T cells = assay: FACS of chemokine receptors on lymph node CD3+ T cells; format: in vivo, mice; conditions: 0.36 mg pellet
# Experimental: Flow cytometry. Lymph node cells from sham and 17β-estradiol treated animals with EAE were washed with PBS/2% FCS/0.2% NaN3 and first incubated on ice for 30 min with Fcγ III/II receptor blocking monoclonal antibody (PharMingen), then stained with PE-conjugated anti-CD3 (PharMingen). After 20 min of incubation with anti-CD3, the cells were fixed and permablized using Cytofix/Cytoperm (PharMingen). Subsequently, cells were incubated with anti-CCR1, anti-CCR2, anti-CCR3, anti-CCR4 and anti-CCR5 goat anti-mouse polyclonal antibodies (Santa Cruz Biotechnology Inc.; USA) for 30 min on ice. After washing, cells were stained with FITC-conjugated anti-goat monoclonal antibodies (Sigma) for an additional 30 min on ice. Cells were analyzed using a FACS-Scan (Becton Dickinson). Propidium iodide and forward/side scatter gating were used to exclude dead cells.
# IFN-γ KO mice = assay: EAE induced with MOG 35-55 in IFN-γ KO mice (clinical, histopathology); format: in vivo; conditions: 2.5 mg pellet
# Experimental: Estrogen treatment. Sixty-day release pellets containing 2.5 mg of 17β-estradiol (E2) or vehicle were implanted subcutaneously (s.c) in the scapular region behind the neck using a 12-gauge trochar as described by the manufacturer (Innovative Research of America, Sarasota, Fla.). The mice were implanted one week prior to immunization with MOG 35-55. The concentration of E2 expected in the serum is between 1,500-2,000 pg/ml, which is approximately 5 times less than the levels found during pregnancy.
# Induction of EAE. C57BL/6 and cytokine deficient mice were inoculated s.c in the flanks with 0.2 ml of an emulsion containing 200 μg of MOG 35-55 in saline and an equal volume of complete Freund's Adjuvant (CFA) containing 400 μg of Mycobacterium tuberculosis H37RA (Difco Laboratories, Detroit, Mich.). Disease induction required i.v. administration of pertussis toxin on the day of immunization (25 ng/mouse) and 2 days later (67 ng/mouse). The mice were assessed daily for clinical signs of EAE according to the 7 point scale described in Example I.
# Histopathology. Histopathologic assessment of spinal column section was performed essentially as described in Example I, except that sections were stained with either luxol fast blue-periodic acid schiff-hematoxylin or silver nitrate prior to analysis.
# Statistical analysis. Significant differences in incidence and mortality between untreated and E2 treated mice were assessed by Chi-square analysis. Difference in onset was determined using the two-tailed Student t test. Differences in peak score and cumulative disease index (CDI) were assessed by the Mann-Whitney test. Statistical significance of the frequency of cytokine secreting cells was analyzed using Student's t test for comparisons of two means. Differences in the expression of chemokine and cytokine mRNA were also determined using the Student t test. Values of p<0.05 were considered significant.
# splenic T cells = assay: Splenic T cell proliferation and cytokine responses of treated Tg mice with EAE; format: in vivo; conditions: 0.36 mg pellet, average
# Experimental: Proliferation assay. Spleens (SPL) were removed surgically, and single cell suspensions were prepared. Proliferative responses of T cells were determined in 96-well microtiter plates by incubating 4×10^5 spleen cells plus antigen at an optimal concentration of 20 μg/well. Cultures were incubated for 72 hr at 37° C. and 7% CO2, the last 18 hr in the presence of 0.5 μCi ^3H-thymidine. Cells were harvested onto glass fiber filters, and thymidine uptake was determined by liquid scintillation. Mean cpm±SEM were calculated from triplicate wells. The stimulation index (SI) was obtained by dividing cpm from antigen-stimulated wells by cpm from wells with no antigen. SI in cultures stimulated with GST alone was subtracted from the SI induced with GST-BV8S2 protein.
# Proliferation assay. Proliferation responses of splenic T cells were determined essentially as described in Example II, except that antigen was used at an optimal concentration of 50 μg/ml.
structure (smiles),measurement,setting,value
C[C@]12CC[C@@H]3c4ccc(O)cc4CC[C@H]3[C@@H]1CC[C@@H]2O [17β-estradiol],"LT-β, TNF-α and IFN-γ message in spinal cord at peak of EAE",spinal cord mRNA,significantly inhibited
same,"chemokine mRNA expression in spinal cord (RANTES, MIP-1α, MIP-2, IP-10, MCP-1)","spinal cord mRNA; intact Tg females, peak of disease p<0.001",profoundly lower levels
same,chemokine mRNA expression in spinal cord,spinal cord mRNA; ovariectomized females,strongly inhibited
same,"mRNA levels for CCR1, CCR2 and CCR5 in spinal cord",spinal cord mRNA; p<0.001,strongly inhibited
same,serum concentration from 60-day release pellet,[1]; 0.025 mg pellet,5 to 10 pg/mL
same,serum concentration from 60-day release pellet,[1]; 0.1 mg pellet,25 to 50 pg/mL
same,serum concentration from 60-day release pellet,[1]; 0.36 mg pellet,150 to 200 pg/mL
same,serum concentration from 60-day release pellet,[1]; 1.5 mg pellet,"800-1,000 pg/ml"
same,serum concentration from 60-day release pellet,[1]; 2.5 mg pellet,"1,500-2,000 pg/ml"
same,serum concentration from 60-day release pellet,[1]; 5 mg pellet,"3,000-4,000 pg/ml"
same,serum concentration from 60-day release pellet,[1]; 15 mg pellet,"9,000-10,000 pg/ml"
same,frequency and staining intensity of TNF-α and IFN-γ producing CD4+ T cells in the CNS,CNS mononuclear cells; p<0.0001,dramatic reduction
same,"total number of mononuclear cells recovered from perfused CNS, untreated relative to E2 treated mice",CNS mononuclear cells; peak of clinical disease,4-5 times higher
same,pro-inflammatory cytokine producing CD4+ Vβ8.2+ T cells in CNS,"CNS mononuclear cells; untreated 29,000 cells/mouse",390 cells/mouse
same,CCR2 staining of lymph node CD3+ T cells,Lymph node CD3+ T cells,No difference
same,percentage of CCR5 positive lymph node CD3+ T cells,"Lymph node CD3+ T cells; sham 35+4, p=0.03, in %",27+2
same,percentage of CCR1 positive lymph node CD3+ T cells,"Lymph node CD3+ T cells; sham 91+6%, p=0.02",77+2%
same,Inflammatory foci/section,"IFN-γ KO mice; IFN-γKO, spinal cord",0.0 ± 0.0 Foci/Section
same,CDI,IFN-γ KO mice; IFNγ KO,19.3 ± 15.9
same,Incidence,IFN-γ KO mice; IFNγ KO,8/10
same,Mortality,IFN-γ KO mice; IFNγ KO,1/10
same,Onset,IFN-γ KO mice; IFNγ KO,21.8 ± 2.7
same,Peak Score,IFN-γ KO mice; IFNγ KO,4.5 ± 1.2
same,inhibition of proliferation of MBP-Ac1-11 specific T cells,splenic T cells,about 47%
